{"source": "paper PMC10499793", "about": "(Nature Communications, 2023)", "conditions_in_all_cases": "4-nitrothiophenol as nucleophile; 400 μM thiamine; pH 7.2, 37 °C", "key": {"CbThi1": {"target": "T1, CbThi1 (Clostridium botulinum, UniProt A5HZW3)", "T1 construct": "gene CBO0770", "T1 sequence (A5HZW3 32-404 limits assumed)": "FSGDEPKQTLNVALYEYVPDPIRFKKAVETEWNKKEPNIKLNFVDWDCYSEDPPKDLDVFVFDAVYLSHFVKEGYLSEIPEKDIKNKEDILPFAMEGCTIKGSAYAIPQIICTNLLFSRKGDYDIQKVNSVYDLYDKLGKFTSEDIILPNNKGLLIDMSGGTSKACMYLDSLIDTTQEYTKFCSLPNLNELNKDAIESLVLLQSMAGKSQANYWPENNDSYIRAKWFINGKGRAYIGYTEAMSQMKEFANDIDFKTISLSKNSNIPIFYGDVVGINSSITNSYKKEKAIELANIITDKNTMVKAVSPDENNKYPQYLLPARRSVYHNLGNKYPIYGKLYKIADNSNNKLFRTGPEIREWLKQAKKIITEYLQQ"}, "MxThi1": {"target": "T2, MxThi1 (Myxococcus xanthus, UniProt Q1D3T2)", "T2 construct": "gene MXAN_4523", "T2 sequence (Q1D3T2 36-418)": "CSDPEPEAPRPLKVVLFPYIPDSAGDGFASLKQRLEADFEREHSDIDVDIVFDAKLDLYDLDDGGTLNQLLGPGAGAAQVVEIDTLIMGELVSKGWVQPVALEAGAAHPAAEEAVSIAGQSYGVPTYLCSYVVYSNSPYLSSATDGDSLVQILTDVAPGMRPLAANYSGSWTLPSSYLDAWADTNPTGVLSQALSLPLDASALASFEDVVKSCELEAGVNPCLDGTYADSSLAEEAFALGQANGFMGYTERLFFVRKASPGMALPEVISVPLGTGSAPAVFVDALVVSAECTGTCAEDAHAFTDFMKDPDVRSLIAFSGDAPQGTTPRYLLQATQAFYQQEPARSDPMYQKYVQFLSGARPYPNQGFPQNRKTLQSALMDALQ", "test": "thiaminase I activity assay, 4-nitrothiophenol consumption at […] nm", "format": "biochemical"}, "AcThi1": {"target": "T3, AcThi1 (Archangium violaceum, UniProt A0ACG8CQS0)", "T3 construct": "gene JRI60_22580", "T3 sequence (A0ACG8CQS0 24-424)": "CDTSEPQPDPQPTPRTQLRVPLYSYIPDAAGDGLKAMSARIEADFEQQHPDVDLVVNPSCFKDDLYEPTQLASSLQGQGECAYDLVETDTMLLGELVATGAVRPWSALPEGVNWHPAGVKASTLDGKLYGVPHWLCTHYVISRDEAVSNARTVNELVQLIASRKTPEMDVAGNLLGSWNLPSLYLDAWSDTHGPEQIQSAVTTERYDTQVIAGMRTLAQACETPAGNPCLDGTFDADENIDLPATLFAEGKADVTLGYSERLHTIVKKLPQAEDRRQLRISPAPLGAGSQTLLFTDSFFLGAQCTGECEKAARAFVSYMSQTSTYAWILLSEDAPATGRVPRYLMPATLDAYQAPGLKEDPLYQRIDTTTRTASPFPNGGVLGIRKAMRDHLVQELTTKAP", "test": "thiaminase I activity assay, 4-nitrothiophenol consumption at […] nm", "format": "biochemical"}}, "data": [{"smiles": "Cc1ncc(C[n+]2csc(CCO)c2C)c(N)n1", "note": "[thiamine]", "values": [{"measurement": "thiaminase I activity assay, 4-nitrothiophenol consumption at 411 nm", "setting": "CbThi1", "value": "All these recombinant proteins exhibited thiaminase I activity"}, {"measurement": "thiaminase I activity assay, 4-nitrothiophenol consumption at 411 nm", "setting": "MxThi1", "value": "All these recombinant proteins exhibited thiaminase I activity"}, {"measurement": "thiaminase I activity assay, 4-nitrothiophenol consumption at 411 nm", "setting": "AcThi1", "value": "All these recombinant proteins exhibited thiaminase I activity"}]}]}
